Source: patent US6555541B1, “Substituted phenyl compounds with immunosuppressing activity and pharmaceutical compositions” (Astrazeneca UK Limited, priority 2000, dated 2003)
Structures can show the parent of a compound that is named as a salt.

| SMILES | melting point |
| --- | --- |
| O=C(CNc1ccc(F)c(F)c1)Nc1cc(N2CCNCC2)ccc1Cl (as salt: hydrochloride) | 240 °C (dec.) |
| Cc1ccc(CN2CCNCC2)cc1NC(=O)CNc1ccc(F)c(F)c1 (as salt: hydrochloride) [Example 1, 2-(3,4-Difluorophenylano)-N-(2-methyl-5-piperazin-1-ylmethyl-phenyl)-acetamide, trihydrochloride] | 232 to 248 °C (dec.) |
| Cc1cc(N2CCNCC2)ccc1NC(=O)CNc1ccc(F)c(F)c1 (as salt: hydrochloride) [Example 10, 2-(3,4-Difluoro-phenylamino)-N-(2-methyl-5-piperazin-1-yl-phenyl)-acetaniide, trihydrochloride] | > 230 °C |
| Cc1ccc(CN2CCNCC2)cc1NC(=S)CNc1ccc(F)c(F)c1 [Example 2, 2-(3,4-Difluoro-phenylamino)-N-(2-methyl-5-piperazin-1-ylmethyl-phenyl)-thioacetamide] | 72 to 82 °C (dec.) |

Second part, the compound after the results:

| melting point | SMILES |
| --- | --- |
| 160 °C (dec.) | Cc1c(Cn2ccnc2)cccc1NC(=O)CNc1ccc(F)c(F)c1 [Example 17, 2-(3,4-Difluorophenylamino)-N-(3-imidazol-1-ylmethyl-2-methylphenyl)acetamide] |
| 144 °C (dec.) | Cc1c(CN(C)C)cccc1NC(=O)CNc1ccc(F)c(F)c1 [Example 18, 2-(3,4-Difluorophenylamino)-N-(3-dimethylaminomethyl-2-methylphenyl)acetamide] |
